Assay results published in the supplement of paper PMC10307832.

Key:
Assay in all cases: relative viability (nuclei count vs DMSO), 5 days (fraction); higher = more cells survive
NCI-H650 = tested on: NCI-H650
Outline: (§1)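 Nuclei were stained with Hoechst during a one-step fixation (final 0.05% Triton X-100, 1% formaldehyde, 1 ug/ml Hoechst) carried out 5 days after dosing, then counted on 4× images. The cells, lung cancer lines in 1536-well plates, had been dosed by pin tool the day after seeding with one drug alone or a fixed anchor-drug dose plus five library-drug doses (not always all listed) in √10 steps. Relative viability is the nuclei count in treated wells divided by that in vehicle wells, and each value is the median of duplicate plates.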

HCC-827 = tested on: HCC-827
Outline: as §1

SK-MES-1 = tested on: SK-MES-1
Outline: as §1

NCI-H596 = tested on: NCI-H596
Outline: as §1

HCC-44 = tested on: HCC-44
Outline: as §1

NCI-H1437 = tested on: NCI-H1437
Outline: as §1

NCI-H441 = tested on: NCI-H441
Outline: as §1

NCI-H358 = tested on: NCI-H358
Outline: as §1

HCC-15 = tested on: HCC-15
Outline: as §1

A-427 = tested on: A-427
Outline: as §1

NCI-H1650 = tested on: NCI-H1650
Outline: as §1

HARA = tested on: HARA
Outline: as §1

NCI-H1975 = tested on: NCI-H1975
Outline: as §1

COR-L23 = tested on: COR-L23
Outline: as §1

NCI-H23 = tested on: NCI-H23
Outline: as §1

201T = tested on: 201T
Outline: as §1

NCI-H2342 = tested on: NCI-H2342
Outline: as §1

EKVX = tested on: EKVX
Outline: as §1

SW 900 = tested on: SW 900
Outline: as §1

NCI-H1792 = tested on: NCI-H1792
Outline: as §1

BEN = tested on: BEN
Outline: as §1

NCI-H838 = tested on: NCI-H838
Outline: as §1

Q: With Cc1sc2c(c1C)C(c1ccc(Cl)cc1)=N[C@@H](CC(=O)OC(C)(C)C)c1nnc(C)n1-2 [JQ1] + Nc1ncn([C@H]2C[C@H](O)[C@@H](CO)O2)c(=O)n1 [Decitabine] (partner 2 µM) as the molecule, how does the relative viability (NCI-H650; first compound 0.04 µM) read?
A: 0.278

Q: And the relative viability (NCI-H650; first compound 0.1265 µM)?
A: 0.305

Q: What about the relative viability (NCI-H650; first compound 0.4 µM) of the same molecule?
A: 0.316

Q: And the relative viability (NCI-H650; first compound 1.265 µM)?
A: 0.251

Q: And the relative viability (NCI-H650; first compound 4 µM)?
A: 0.249

Q: What about the relative viability (HCC-827; first compound 0.04 µM) of the same molecule?
A: 0.34

Q: What about the relative viability (HCC-827; first compound 0.1265 µM) of the same molecule?
A: 0.302

Q: What about the relative viability (HCC-827; first compound 1.265 µM) of the same molecule?
A: 0.333

Q: What about the relative viability (HCC-827; first compound 4 µM) of the same molecule?
A: 0.314

Q: What about the relative viability (SK-MES-1; first compound 0.04 µM) of the same molecule?
A: 0.347

Q: And the relative viability (SK-MES-1; first compound 0.1265 µM)?
A: 0.385

Q: And the relative viability (SK-MES-1; first compound 0.4 µM)?
A: 0.315

Q: What about the relative viability (SK-MES-1; first compound 1.265 µM) of the same molecule?
A: 0.194

Q: And the relative viability (SK-MES-1; first compound 4 µM)?
A: 0.216

Q: And the relative viability (NCI-H596; first compound 0.04 µM)?
A: 1.04

Q: What about the relative viability (NCI-H596; first compound 0.1265 µM) of the same molecule?
A: 0.978

Q: And the relative viability (NCI-H596; first compound 0.4 µM)?
A: 0.679

Q: And the relative viability (NCI-H596; first compound 1.265 µM)?
A: 0.611

Q: And the relative viability (NCI-H596; first compound 4 µM)?
A: 0.62

Q: And the relative viability (HCC-44; first compound 0.04 µM)?
A: 0.955

Q: What about the relative viability (HCC-44; first compound 0.1265 µM) of the same molecule?
A: 0.63

Q: What about the relative viability (HCC-44; first compound 0.4 µM) of the same molecule?
A: 0.834

Q: What about the relative viability (HCC-44; first compound 1.265 µM) of the same molecule?
A: 0.903

Q: What about the relative viability (HCC-44; first compound 4 µM) of the same molecule?
A: 0.516

Q: What about the relative viability (NCI-H1437; first compound 0.04 µM) of the same molecule?
A: 0.544

Q: And the relative viability (NCI-H1437; first compound 0.1265 µM)?
A: 0.577

Q: And the relative viability (NCI-H1437; first compound 0.4 µM)?
A: 0.55

Q: And the relative viability (NCI-H1437; first compound 1.265 µM)?
A: 0.486

Q: What about the relative viability (NCI-H1437; first compound 4 µM) of the same molecule?
A: 0.37

Q: What about the relative viability (NCI-H441; first compound 0.04 µM) of the same molecule?
A: 0.257

Q: What about the relative viability (NCI-H441; first compound 0.1265 µM) of the same molecule?
A: 0.266

Q: And the relative viability (NCI-H441; first compound 0.4 µM)?
A: 0.251

Q: What about the relative viability (NCI-H441; first compound 1.265 µM) of the same molecule?
A: 0.152

Q: What about the relative viability (NCI-H441; first compound 4 µM) of the same molecule?
A: 0.17

Q: What about the relative viability (NCI-H358; first compound 0.04 µM) of the same molecule?
A: 0.212

Q: What about the relative viability (NCI-H358; first compound 0.1265 µM) of the same molecule?
A: 0.227

Q: What about the relative viability (NCI-H358; first compound 0.4 µM) of the same molecule?
A: 0.235

Q: What about the relative viability (NCI-H358; first compound 1.265 µM) of the same molecule?
A: 0.188

Q: What about the relative viability (NCI-H358; first compound 4 µM) of the same molecule?
A: 0.206

Q: And the relative viability (HCC-15; first compound 0.04 µM)?
A: 0.617

Q: What about the relative viability (HCC-15; first compound 0.1265 µM) of the same molecule?
A: 0.491

Q: And the relative viability (HCC-15; first compound 0.4 µM)?
A: 0.6

Q: And the relative viability (HCC-15; first compound 1.265 µM)?
A: 0.406

Q: What about the relative viability (HCC-15; first compound 4 µM) of the same molecule?
A: 0.408

Q: And the relative viability (A-427; first compound 0.04 µM)?
A: 0.57

Q: What about the relative viability (A-427; first compound 0.1265 µM) of the same molecule?
A: 0.506

Q: What about the relative viability (A-427; first compound 0.4 µM) of the same molecule?
A: 0.591

Q: And the relative viability (A-427; first compound 1.265 µM)?
A: 0.495

Q: What about the relative viability (A-427; first compound 4 µM) of the same molecule?
A: 0.478

Q: What about the relative viability (NCI-H1650; first compound 0.04 µM) of the same molecule?
A: 0.442

Q: What about the relative viability (NCI-H1650; first compound 0.1265 µM) of the same molecule?
A: 0.44

Q: What about the relative viability (NCI-H1650; first compound 0.4 µM) of the same molecule?
A: 0.333

Q: What about the relative viability (NCI-H1650; first compound 1.265 µM) of the same molecule?
A: 0.185

Q: What about the relative viability (NCI-H1650; first compound 4 µM) of the same molecule?
A: 0.146

Q: And the relative viability (HARA; first compound 0.04 µM)?
A: 0.617

Q: And the relative viability (HARA; first compound 0.1265 µM)?
A: 0.49

Q: And the relative viability (HARA; first compound 0.4 µM)?
A: 0.457

Q: And the relative viability (HARA; first compound 1.265 µM)?
A: 0.385

Q: What about the relative viability (HARA; first compound 4 µM) of the same molecule?
A: 0.249

Q: What about the relative viability (NCI-H1975; first compound 0.04 µM) of the same molecule?
A: 0.393

Q: What about the relative viability (NCI-H1975; first compound 0.1265 µM) of the same molecule?
A: 0.282

Q: And the relative viability (NCI-H1975; first compound 0.4 µM)?
A: 0.331

Q: What about the relative viability (NCI-H1975; first compound 1.265 µM) of the same molecule?
A: 0.261

Q: And the relative viability (NCI-H1975; first compound 4 µM)?
A: 0.232

Q: And the relative viability (COR-L23; first compound 0.04 µM)?
A: 0.421

Q: What about the relative viability (COR-L23; first compound 0.1265 µM) of the same molecule?
A: 0.351

Q: And the relative viability (COR-L23; first compound 0.4 µM)?
A: 0.387

Q: And the relative viability (COR-L23; first compound 1.265 µM)?
A: 0.272

Q: What about the relative viability (COR-L23; first compound 4 µM) of the same molecule?
A: 0.332

Q: And the relative viability (NCI-H23; first compound 0.04 µM)?
A: 0.323

Q: And the relative viability (NCI-H23; first compound 0.1265 µM)?
A: 0.3

Q: And the relative viability (NCI-H23; first compound 0.4 µM)?
A: 0.303

Q: And the relative viability (NCI-H23; first compound 1.265 µM)?
A: 0.244

Q: What about the relative viability (NCI-H23; first compound 4 µM) of the same molecule?
A: 0.211

Q: And the relative viability (201T; first compound 0.04 µM)?
A: 0.88

Q: What about the relative viability (201T; first compound 0.4 µM) of the same molecule?
A: 0.694

Q: And the relative viability (201T; first compound 1.265 µM)?
A: 0.527

Q: And the relative viability (201T; first compound 4 µM)?
A: 0.453

Q: What about the relative viability (NCI-H2342; first compound 0.04 µM) of the same molecule?
A: 0.79

Q: What about the relative viability (NCI-H2342; first compound 0.1265 µM) of the same molecule?
A: 0.636

Q: And the relative viability (NCI-H2342; first compound 0.4 µM)?
A: 0.737

Q: What about the relative viability (NCI-H2342; first compound 1.265 µM) of the same molecule?
A: 0.76

Q: And the relative viability (NCI-H2342; first compound 4 µM)?
A: 0.665

Q: And the relative viability (EKVX; first compound 0.04 µM)?
A: 0.338

Q: And the relative viability (EKVX; first compound 0.1265 µM)?
A: 0.36

Q: And the relative viability (EKVX; first compound 0.4 µM)?
A: 0.359

Q: And the relative viability (EKVX; first compound 1.265 µM)?
A: 0.35

Q: What about the relative viability (EKVX; first compound 4 µM) of the same molecule?
A: 0.336

Q: And the relative viability (SW 900; first compound 0.04 µM)?
A: 0.431

Q: And the relative viability (SW 900; first compound 0.1265 µM)?
A: 0.472

Q: And the relative viability (SW 900; first compound 0.4 µM)?
A: 0.426

Q: What about the relative viability (SW 900; first compound 1.265 µM) of the same molecule?
A: 0.307

Q: What about the relative viability (SW 900; first compound 4 µM) of the same molecule?
A: 0.235

Q: And the relative viability (NCI-H1792; first compound 0.04 µM)?
A: 0.477

Q: And the relative viability (NCI-H1792; first compound 0.1265 µM)?
A: 0.729

Q: What about the relative viability (NCI-H1792; first compound 0.4 µM) of the same molecule?
A: 0.525

Q: What about the relative viability (NCI-H1792; first compound 1.265 µM) of the same molecule?
A: 0.334

Q: What about the relative viability (NCI-H1792; first compound 4 µM) of the same molecule?
A: 0.187

Q: And the relative viability (BEN; first compound 0.04 µM)?
A: 0.712

Q: And the relative viability (BEN; first compound 0.1265 µM)?
A: 0.578

Q: What about the relative viability (BEN; first compound 0.4 µM) of the same molecule?
A: 0.63

Q: And the relative viability (BEN; first compound 1.265 µM)?
A: 0.511

Q: And the relative viability (BEN; first compound 4 µM)?
A: 0.38

Q: And the relative viability (NCI-H838; first compound 0.04 µM)?
A: 0.458

Q: And the relative viability (NCI-H838; first compound 0.1265 µM)?
A: 0.371

Q: What about the relative viability (NCI-H838; first compound 0.4 µM) of the same molecule?
A: 0.347

Q: And the relative viability (NCI-H838; first compound 1.265 µM)?
A: 0.282

Q: What about the relative viability (NCI-H838; first compound 4 µM) of the same molecule?
A: 0.235
